From patent US9913849B2, “Treatment of migraines” (Manistee Partners LLC, priority 2014, dated 2018)
Where two headings read alike, the source gives them in different places.

What was measured:
[1] = cited from earlier work
[2] = cited from earlier work; remark: listed apart in the source
[3] = system: subject with a history of migraine headaches; test: Migraine case reports, topical administration to the eye(s); type: in vivo, human; conditions: Example 1: person, 0.0004% single drop in both eyes once per day in the evening, 30 days
Procedure: A subject was treated with ocular administration of travoprost 0.0004% once per day as a single drop in both eyes in the evening. The subject reported that they had no migraines after being on therapy for 30 days.
A person with a fifteen year history of severe migraine headaches refractory to multiple therapies, started treatment with TRAVATAN Z® (travoprost ophthalmic solution) administered topically to one eye daily.
A person with a history of migraine headaches (one per week) was started on daily topical administration of the prostaglandin, XALATAN® (latanoprost ophthalmic solution), to both eyes daily.

[4] = cited from earlier work; remark: listed apart in the source
[5] = one drop 0.0015% solution once daily into each eye, cited from earlier work
[6] = blood, days 7 and 14, 0.03% once daily to both eyes

CCNC(=O)CCC/C=C\C[C@@H]1[C@@H](/C=C/[C@@H](O)CCc2ccccc2)[C@H](O)C[C@@H]1O [Bimatoprost, (Z)-7-[(1R,2R,3R,5S)-3,5Dihydroxy-2-[(1E,3S)-3-hydroxy-5-phenyl-1-pentenyl]cyclopentyl]-5-N-ethylheptenamide]
mean AUCO-24 hr [1, 6]: ~0.09 ng·h/mL
mean Cmax [1, 6]: approximately 0.08 ng/mL
distribution in human blood ([1]; human blood): resides mainly in the plasma
steady-state volume of distribution ([1]; human, in vivo): 0.67 L/kg
blood concentration (below lower limit of detection) ([1]; in most subjects within 1.5 hours after dosing, 0.03% once daily to both eyes): < 0.025 ng/mL
time at which blood concentrations peaked after dosing ([1]; one drop 0.03% once daily to both eyes, 15 healthy subjects, two weeks): ≤ 10 min

O=C(O)CCC/C=C\C[C@@H]1[C@@H](CC[C@@H](O)CCc2ccccc2)[C@H](O)C[C@@H]1O [acid of latanoprost]
time during which the acid can be measured in aqueous humor ([2]; after local administration): ≤ 4 h
time during which the acid can be measured in plasma ([2]; after local administration): only during the first hour

CC(C)OC(=O)CCC/C=C\C[C@@H]1[C@@H](/C=C/[C@@H](O)COc2cccc(C(F)(F)F)c2)[C@H](O)C[C@@H]1O (relative stereo) [travoprost, [1R-[1α(Z),2β(1E,3R*),3α, 5α]]-7-[3,5-Dihydroxy-2-[3-hydroxy-4-[3-(trifluoromethyl)phenoxy]-1-butenyl]cyclopentyl]-5-heptenoic acid, 1-methylethylester]
migraines reported on therapy [3]: no migraines

CC(C)OC(=O)CCC/C=C\C[C@@H]1[C@@H](CC[C@@H](O)CCc2ccccc2)[C@H](O)C[C@@H]1O [Latanoprost, isopropyl-(Z)7[(1R,2R,3R,5S)3,5-dihydroxy-2-[(3R)-3-hydroxy-5-phenylpentyl]cyclopentyl]-5-heptenoate, reference compound]
distribution volume ([2]; in humans): 0.16 ± 0.02 L/kg

O=C(O)CCC/C=C\C[C@@H]1[C@@H](/C=C/[C@@H](O)COc2cccc(C(F)(F)F)c2)[C@H](O)C[C@@H]1O [travoprost free acid]
mean plasma Cmax ([4]; individuals with quantifiable plasma concentrations (N=38)): 0.018 ± 0.007 ng/mL
plasma concentrations of the free acid (below quantitation limit of the assay) ([4]; single drop daily in both eyes, in two-thirds of the subjects): below 0.01 ng/ml

O=C(O)CCC/C=C\C[C@@H]1[C@@H](/C=C/C(F)(F)COc2ccccc2)[C@H](O)C[C@@H]1O [tafluprost acid]
mean plasma AUC estimate of tafluprost acid ([5]; Day 1): 394 pg·min/mL
mean plasma Cmax of tafluprost acid ([5]; Day 1): 0.026 ng/mL
mean plasma AUC estimate of tafluprost acid ([5]; Day 8): 432 pg·min/mL
mean plasma Cmax of tafluprost acid ([5]; Day 8): 0.027 ng/mL
median time at which plasma concentrations of tafluprost acid peaked ([5]; healthy volunteers, both Days 1 and 8): 10 min
